SMILES strings stand for the structures.

The target of the first test is T1, F508del (Homo sapiens, UniProt P13569, DEL508-508).
T1 construct: expressed in transfected cells
T1 sequence (P13569 with tags, fused parts or gaps DEL508-508): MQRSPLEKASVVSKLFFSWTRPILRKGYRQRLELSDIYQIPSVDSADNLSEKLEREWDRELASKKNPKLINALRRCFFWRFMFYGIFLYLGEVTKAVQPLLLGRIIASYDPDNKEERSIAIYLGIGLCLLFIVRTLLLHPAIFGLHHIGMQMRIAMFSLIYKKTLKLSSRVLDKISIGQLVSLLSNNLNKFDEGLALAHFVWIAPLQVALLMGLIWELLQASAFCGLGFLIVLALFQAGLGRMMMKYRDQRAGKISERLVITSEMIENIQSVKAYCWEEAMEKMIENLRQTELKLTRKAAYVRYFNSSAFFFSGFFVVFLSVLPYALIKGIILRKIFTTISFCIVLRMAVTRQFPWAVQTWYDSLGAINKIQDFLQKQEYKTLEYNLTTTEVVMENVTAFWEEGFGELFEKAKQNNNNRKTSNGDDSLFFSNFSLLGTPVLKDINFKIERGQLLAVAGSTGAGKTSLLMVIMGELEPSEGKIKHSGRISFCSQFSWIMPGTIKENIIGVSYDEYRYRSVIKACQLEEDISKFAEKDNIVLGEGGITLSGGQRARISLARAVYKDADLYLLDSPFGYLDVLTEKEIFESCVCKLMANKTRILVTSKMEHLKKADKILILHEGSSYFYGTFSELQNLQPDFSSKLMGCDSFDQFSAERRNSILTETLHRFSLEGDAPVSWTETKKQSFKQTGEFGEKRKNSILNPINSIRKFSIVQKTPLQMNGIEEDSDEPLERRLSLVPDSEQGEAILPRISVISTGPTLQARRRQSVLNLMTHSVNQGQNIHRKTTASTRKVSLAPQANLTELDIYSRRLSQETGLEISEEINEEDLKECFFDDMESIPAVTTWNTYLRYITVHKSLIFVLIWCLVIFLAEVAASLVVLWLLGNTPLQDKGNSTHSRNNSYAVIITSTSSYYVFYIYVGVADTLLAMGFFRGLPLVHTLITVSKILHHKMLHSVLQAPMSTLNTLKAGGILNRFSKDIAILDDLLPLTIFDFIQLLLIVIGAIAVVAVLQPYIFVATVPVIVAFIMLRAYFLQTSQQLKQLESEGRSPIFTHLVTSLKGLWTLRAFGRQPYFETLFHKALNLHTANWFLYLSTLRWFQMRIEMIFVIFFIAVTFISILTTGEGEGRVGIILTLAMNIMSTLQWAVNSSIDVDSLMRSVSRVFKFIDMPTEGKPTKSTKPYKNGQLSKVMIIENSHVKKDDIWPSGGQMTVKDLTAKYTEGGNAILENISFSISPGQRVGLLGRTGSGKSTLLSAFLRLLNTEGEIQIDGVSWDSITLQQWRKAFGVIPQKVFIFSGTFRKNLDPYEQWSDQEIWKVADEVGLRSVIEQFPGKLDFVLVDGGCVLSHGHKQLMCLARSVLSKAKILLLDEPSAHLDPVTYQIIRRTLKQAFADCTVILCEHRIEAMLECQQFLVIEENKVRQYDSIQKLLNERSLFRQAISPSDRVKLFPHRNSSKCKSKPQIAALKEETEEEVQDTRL
Kind of test: Protocol 2: FRET membrane potential optical assay (VIPR), identification of correction compounds. The conditions noted are these: F508del CFTR modulator activity; compounds of Table 1; read-out: EC30. The class given is cell-based. The method in brief:
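FRET read-out (CC2-DMPE donor, DiSBAC2(3) voltage-sensitive acceptor) of membrane depolarization on VIPR II. Corrector candidates incubated 16 hrs at 37° C. with NIH3T3 cells expressing F508del; temperature correction at 27° C. as positive control; stimulation by 10 μM forskolin, 20 μM genistein, chloride-free gluconate bath.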
The term EC30 denotes the concentration needed for an effect of 30%. `COc1cccc(F)c1-c1ccc(C(=O)NS(=O)(=O)c2ccc[nH]c2=O)c(N2C[C@@H](C)CC2(C)C)n1` [Compound 2422, 6-(2-fluoro-6-methoxy-phenyl)-N-[(2-oxo-1H-pyridin-3-yl)sulfonyl]-2-[(4S)-2,2,4-trimethylpyrrolidin-1-yl]pyridine-3-carboxamide]: the 30% effect concentration (EC30) was 3000 to 10000 nM. On to `CC(C)COc1cc(F)cc(-c2nc(N3C[C@@H](C)CC3(C)C)cnc2C(=O)NS(=O)(=O)c2cccc(N)n2)c1` [Compound 2673, N-[(6-amino-2-pyridyl)sulfonyl]-3-(3-fluoro-5-isobutoxy-phenyl)-5-[(4S)-2,2,4-trimethylpyrrolidin-1-yl]pyrazine-2-carboxamide], for which the EC30 is less than 3000 nM. Still for that read-out and setting: the result for `CC(C)c1ccc(-c2ccc(C(=O)NS(=O)(=O)c3cccnc3N)c(N3C[C@@H](C)CC3(C)C)n2)cc1` [Compound 2368, N-[(2-amino-3-pyridyl)sulfonyl]-6-(4-isopropylphenyl)-2-[(4S)-2,2,4-trimethylpyrrolidin-1-yl]pyridine-3-carboxamide] reads less than 3000 nM; that for `CCOc1cc(-c2ccc(C(=O)NS(=O)(=O)c3ccc[nH]c3=O)c(N3C[C@@H](C)CC3(C)C)n2)ccc1F` [Compound 2459, 6-(3-ethoxy-4-fluoro-phenyl)-N-[(2-oxo-1H-pyridin-3-yl)sulfonyl]-2-[(4S)-2,2,4-trimethylpyrrolidin-1-yl]pyridine-3-carboxamide], less than 3000 nM; that for `CC1CN(c2ncccc2C(=O)NS(=O)(=O)c2cccc(NCCc3ccc(Cl)cc3)n2)C(C)(C)C1` (stereo not drawn) [Compound 2262, N—[[6-[2-(4-chlorophenyl)ethylamino]-2-pyridyl]sulfonyl]-2-(2,2,4-trimethylpyrrolidin-1-yl)pyridine-3-carboxamide], less than 3000 nM. `CCOc1cc(F)cc(-c2ccc(C(=O)NS(=O)(=O)c3ccc[nH]c3=O)c(N3C[C@@H](C)CC3(C)C)n2)c1` [Compound 2278, 6-(3-ethoxy-5-fluoro-phenyl)-N-[(2-oxo-1H-pyridin-3-yl)sulfonyl]-2-[(4S)-2,2,4-trimethylpyrrolidin-1-yl]pyridine-3-carboxamide]: the EC30 was less than 3000 nM. Turning to `Cc1ccc2cc(C(=O)NS(=O)(=O)c3cccc(N)n3)c(N3C[C@@H](C)CC3(C)C)nc2c1` [Compound 2519, N-[(6-amino-2-pyridyl)sulfonyl]-7-methyl-2-[(4S)-2,2,4-trimethylpyrrolidin-1-yl]quinoline-3-carboxamide], the EC30 was less than 3000 nM. Still for that read-out and setting: the result for `Cc1cc(-c2cnc(N3CC(C)CC3(C)C)c(C(=O)NS(=O)(=O)c3cccc(N)n3)c2)cc(C(C)(C)C)c1` (stereo not drawn) [Compound 2322, N-[(6-amino-2-pyridyl)sulfonyl]-5-(3-tert-butyl-5-methyl-phenyl)-2-(2,2,4-trimethylpyrrolidin-1-yl)pyridine-3-carboxamide] reads less than 3000 nM; that for `Cc1ccc(-c2ccc(C(=O)NS(=O)(=O)c3ccc[nH]c3=O)c(N3C[C@@H](C)CC3(C)C)n2)c(O)c1` [Compound 2148, 6-(2-hydroxy-4-methyl-phenyl)-N-[(2-oxo-1H-pyridin-3-yl)sulfonyl]-2-[(4S)-2,2,4-trimethylpyrrolidin-1-yl]pyridine-3-carboxamide], 3000 to 10000 nM. On the same count and under the same terms, the result for `COc1ccc(-c2ccc(C(=O)NS(=O)(=O)c3ccc[nH]c3=O)c(N3C[C@@H](C)CC3(C)C)n2)c(F)c1F` [Compound 2567, 6-(2,3-difluoro-4-methoxy-phenyl)-N-[(2-oxo-1H-pyridin-3-yl)sulfonyl]-2-[(4S)-2,2,4-trimethylpyrrolidin-1-yl]pyridine-3-carboxamide] reads less than 3000 nM; that for `COc1cccc(S(=O)(=O)NC(=O)c2cccnc2N2CC(C)CC2(C)C)n1` (stereo not drawn) [Compound 2430], 3000 to 10000 nM; that for `C[C@@H]1CN(c2nc(-c3ccccc3)ccc2C(=O)NS(=O)(=O)c2ccc[nH]c2=O)C(C)(C)C1` [Compound 2445, N-[(2-oxo-1H-pyridin-3-yl)sulfonyl]-6-phenyl-2-[(4S)-2,2,4-trimethylpyrrolidin-1-yl]pyridine-3-carboxamide], less than 3000 nM. Take `Cc1cc(-c2ccc(C(=O)NS(=O)(=O)c3cccc(N)n3)c(N3C[C@@H](C)CC3(C)C)n2)cnc1N(C)C(C)C` [Compound 2684]: the EC30 was less than 3000 nM. The same measure, in the same setting: the result for `C[C@@H]1CN(c2nc(-c3cc(O)cc(F)c3)ccc2C(=O)NS(=O)(=O)c2cccnc2N)C(C)(C)C1` [Compound 2349, N-[(2-amino-3-pyridyl)sulfonyl]-6-(3-fluoro-5-hydroxy-phenyl)-2-[(4S)-2,2,4-trimethylpyrrolidin-1-yl]pyridine-3-carboxamide] reads 3000 to 10000 nM; that for `CC(C)Cn1ccc(-c2cnc(N3CC(C)CC3(C)C)c(C(=O)NS(=O)(=O)c3cccc(N)n3)c2)n1` (stereo not drawn) [Compound 2303, N-[(6-amino-2-pyridyl)sulfonyl]-5-(1-isobutylpyrazol-3-yl)-2-(2,2,4-trimethylpyrrolidin-1-yl)pyridine-3-carboxamide], 3000 to 10000 nM. On the same count and under the same terms, the result for `CCOCCOc1ccc(C(=O)NS(=O)(=O)c2cccnc2N)c(N2C[C@@H](C)CC2(C)C)n1` [Compound 2699] reads less than 3000 nM.

`CC1CN(c2ncccc2C(=O)NS(=O)(=O)c2cccc(OCc3ccc(-n4cccn4)cc3)n2)C(C)(C)C1` (stereo not drawn) [Compound 2118, N—[[6-[(4-pyrazol-1-ylphenyl)methoxy]-2-pyridyl]sulfonyl]-2-(2,2,4-trimethylpyrrolidin-1-yl)pyridine-3-carboxamide]: the concentration for an effect of 30% (EC30) was less than 3000 nM.

The test is the same for the next values; noted with them: Table 3; compounds of Table 1 as modulators of CFTR activity; protocol not stated.
For `Cc1cc(C)c(Oc2nc(-c3cc(CO)ccc3F)ccc2C(=O)NS(=O)(=O)c2cccc(N)n2)c(C)c1` [Compound 727, N-[(6-amino-2-pyridyl)sulfonyl]-6-[2-fluoro-5-(hydroxymethyl)phenyl]-2-(2,4,6-trimethylphenoxy)pyridine-3-carboxamide], the concentration for an effect of 30% (EC30) result is recorded as “+ (“+” means greater than 10 uM)”.

In the case of `Cc1cc(C)c(Oc2nc(C(C)(C)C)ccc2C(=O)NS(=O)(=O)c2cccc(C(F)F)n2)c(C)c1` [Compound 501, 6-tert-butyl-N-[[6-(difluoromethyl)-2-pyridyl]sulfonyl]-2-(2,4,6-trimethylphenoxy)pyridine-3-carboxamide], the EC30 entry is “+++ (“+++” means <3 uM)”. On the same count and under the same terms, the result for `COc1ncc(-c2ccc(C(=O)NS(=O)(=O)c3cccc(N)n3)c(Oc3ccc(C)cc3C)n2)cc1C` [Compound 533, N-[(6-amino-2-pyridyl)sulfonyl]-2-(2,4-dimethylphenoxy)-6-(6-methoxy-5-methyl-3-pyridyl)pyridine-3-carboxamide] reads “+++ (“+++” means <3 uM)”; that for `CC(C)COc1cc(F)cc(-c2ccc(C(=O)NS(=O)(=O)c3cccc(N)n3)c(N3CCC[C@H]3C)n2)c1` [Compound 694, N-[(6-amino-2-pyridyl)sulfonyl]-6-(3-fluoro-5-isobutoxy-phenyl)-2-[(2R)-2-methylpyrrolidin-1-yl]pyridine-3-carboxamide], “+++ (“+++” means <3 uM)”; that for `COc1ccccc1S(=O)(=O)NC(=O)c1ccc(C(C)(C)C)nc1Oc1c(C)cc(C)cc1C` [Compound 115, 6-tert-butyl-N-(2-methoxyphenyl)sulfonyl-2-(2,4,6-trimethylphenoxy)pyridine-3-carboxamide], “+++ (“+++” means <3 uM)”. As for `Cc1cccc(C)c1Cn1nc(C(C)(C)C)cc1C(=O)NS(=O)(=O)c1ccc(N)cc1` [Compound 81, N-(4-aminophenyl)sulfonyl-5-tert-butyl-2-[(2,6-dimethylphenyl)methyl]pyrazole-3-carboxamide], the EC30 entry is recorded as “+++ (“+++” means <3 uM)”.

`Cc1cc(C)c(Oc2nc(-c3ccc(C(F)(F)F)nc3)ccc2C(=O)NS(=O)(=O)c2cccc(N)n2)c(C)c1` [Compound 132, N-[(6-amino-2-pyridyl)sulfonyl]-6-[6-(trifluoromethyl)-3-pyridyl]-2-(2,4,6-trimethylphenoxy)pyridine-3-carboxamide]: the EC30 result is recorded as “+++ (“+++” means <3 uM)”. The same measure, in the same setting: the result for `CC(C)COc1cccc(-c2ccc(C(=O)NS(=O)(=O)c3ccc[nH]c3=O)c(N3[C@H](C)CC[C@@H]3C)n2)c1` [Compound 511, 2-[(2S,5R)-2,5-dimethylpyrrolidin-1-yl]-6-(3-isobutoxyphenyl)-N-[(2-oxo-1H-pyridin-3-yl)sulfonyl]pyridine-3-carboxamide] reads “+++ (“+++” means <3 uM)”. The same measure, in the same setting: the result for `COc1cc(F)ccc1-c1cc(C(=O)NS(=O)(=O)c2ccccc2)n(Cc2c(C)cccc2C)n1` [Compound 155, N-(benzenesulfonyl)-2-[(2,6-dimethylphenyl)methyl]-5-(4-fluoro-2-methoxy-phenyl)pyrazole-3-carboxamide] reads “++ (“++” means between 3 uM and 10 uM)”; that for `CC(C)Oc1ccc(-c2ccc(C(=O)NS(=O)(=O)c3cccc(N)n3)c(N3CCCCC3)n2)cn1` [Compound 567, N-[(6-amino-2-pyridyl)sulfonyl]-6-(6-isopropoxy-3-pyridyl)-2-(1-piperidyl)pyridine-3-carboxamide], “++ (“++” means between 3 uM and 10 uM)”. The same measure, in the same setting: the result for `CCOc1ccccc1-c1cc(C(=O)NS(=O)(=O)c2ccccc2)n(Cc2c(C)cccc2C)n1` [Compound 152, N-(benzenesulfonyl)-2-[(2,6-dimethylphenyl)methyl]-5-(2-ethoxyphenyl)pyrazole-3-carboxamide] reads “+++ (“+++” means <3 uM)”; that for `Cc1cc(C)c(Cn2c(C(=O)NS(=O)(=O)c3ccccc3)cc3ccc(Cl)cc32)c(C)c1` [Compound 10, N-(benzenesulfonyl)-6-chloro-1-[(2,4,6-trimethylphenyl)methyl]indole-2-carboxamide], “+++ (“+++” means <3 uM)”; that for `Cc1cc(C)c(Oc2nc(-c3ccc(Cl)cc3)ccc2C(=O)NS(=O)(=O)c2ccc[nH]c2=O)c(C)c1` [Compound 579, 6-(4-chlorophenyl)-N-[(2-oxo-1H-pyridin-3-yl)sulfonyl]-2-(2,4,6-trimethylphenoxy)pyridine-3-carboxamide], “+++ (“+++” means <3 uM)”.

Source of the values: patent US10758534B2 (Vertex Pharmaceuticals Incorporated, priority 2014, dated 2020).
